Results on 23 compounds are retold here after patent US12084472B2 (Ardelyx, Inc., priority 2015, dated 2024).

The assay deals with T1, human TGR5 (Homo sapiens, UniProt Q8TDU6).
T1 construct: expressed in transfected cells; host or cells: HEK293
T1 sequence (Q8TDU6 1-330): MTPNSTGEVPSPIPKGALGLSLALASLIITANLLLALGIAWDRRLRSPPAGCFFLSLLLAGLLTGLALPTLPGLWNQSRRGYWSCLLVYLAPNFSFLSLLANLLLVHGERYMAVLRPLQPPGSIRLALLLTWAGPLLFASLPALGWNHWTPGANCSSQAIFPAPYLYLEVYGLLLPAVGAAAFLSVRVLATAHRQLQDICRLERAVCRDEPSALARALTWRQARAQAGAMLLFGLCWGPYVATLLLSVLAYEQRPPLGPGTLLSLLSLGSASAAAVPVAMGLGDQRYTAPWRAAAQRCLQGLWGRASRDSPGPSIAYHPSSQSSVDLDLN
Description: Cell-based TGR5 assay (cAMP generation, HTRF). Conditions: HEK293 cells stably transfected with human TGR5; cAMP by HTRF; 30 minutes at 37° C.; read-out: pEC50 Human TGR5 (converted). The gist of the method: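 Read-out was HTRF detection of cAMP, converted to concentration via a standard curve and fitted (3-parameter logistic) for pEC50 and maximal response. Agonist stimulation used HEK293 cells stably transfected with human TGR5, incubated 30 min at 37° C in IBMX-containing buffer at 0.05 nM to 10 μM compound.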
On the technique in general: In TR-FRET formats the signal depends on donor and acceptor labels being close together.
With `Cc1ccc(SCCCCC(=O)NC[C@H](O)[C@@H](O)[C@H](O)[C@H](O)CO)nc1CNC1(c2cnccc2-c2ccccc2OC2CC2)CC1` [Compound I-645, 5-({6-[({1-[4-(2-cyclopropoxyphenyl)pyridin-3-yl]cyclopropyl}amino)methyl]-5-methylpyridin-2-yl}sulfanyl)-N-[(2S,3R,4R,5R)-2,3,4,5,6-pentahydroxyhexyl]pentanamide], the EC50 is below 100 nM.

Consider `Clc1ccc(Cl)c(COC2(c3cnccc3-c3ccccc3OC3CC3)CCCC2)c1` [Compound I-742, 4-(2-cyclopropoxyphenyl)-3-(1-((2,5-dichlorobenzyl)oxy)cyclopentyl)pyridine], for which the EC50 is 126 to 1000 nM.

As for `CC(C)Oc1ccccc1-c1ccncc1C1(NCc2cc(Cl)ccc2Cl)CC1` [Compound I-2, N-[(2,5-dichlorophenyl)methyl]-1-{4-[2-(propan-2-yloxy)phenyl]pyridin-3-yl}cyclopropan-1-amine], the EC50 is below 100 nM.

Turning to `O=S(=O)(c1ccc(Cl)c(COC2(c3cnccc3-c3ccccc3OC3CC3)CC2)c1)N1CCc2nc(O)ccc2C1` [Compound I-734, 6-[[4-chloro-3-([1-[4-(2-cyclopropoxyphenyl)pyridin-3-yl]cyclopropoxy]methyl)benzene]sulfonyl]-5,6,7,8-tetrahydro-1,6-naphthyridin-2-ol], the EC50 is below 100 nM.

Regarding `Cc1ccc(CCCCC(=O)NC[C@H](O)[C@@H](O)[C@H](O)[C@H](O)CO)cc1CNC1(c2cnccc2-c2ccccc2OC2CC2)CC1` (stereo in doubt) [Compound I-237, 5-{3-[({1-[4-(2-cyclopropoxyphenyl)pyridin-3-yl]cyclopropyl}amino)methyl]-4-methylphenyl}-N-[(2S,3R,4R,5R)-2,3,4,5,6-pentahydroxyhexyl]pentanamide], the EC50 was 126 to 1000 nM.

For `Clc1ccc(Cl)c(CNC2(c3cnccc3-c3ccccc3OC3CCOC3)CC2)c1` (centres unmarked) [Compound I-21, N-[(2,5-dichlorophenyl)methyl]-1-{4-[2-(oxolan-3-yloxy)phenyl]pyridin-3-yl}cyclopropan-1-amine], the EC50 was 126 to 1000 nM.

Take `CS(=O)(=O)NCCN(CCCSc1ccc(Cl)c(COC2(c3cnccc3-c3ccccc3OC3CC3)CC2)c1)C(=O)[C@@H](O)[C@@H](O)[C@H](O)[C@@H](O)CO` [Compound I-593, (2S,3S,4R,5S)-N-(3-{[4-chloro-3-({1-[4-(2-cyclopropoxyphenyl)pyridin-3-yl]cyclopropoxy}methyl)phenyl]sulfanyl}propyl)-2,3,4,5,6-pentahydroxy-N-(2-methanesulfonamidoethyl) hexanamide]: the EC50 was below 100 nM.

Turning to `Cc1ccc(C(C)CCCC(=O)N2CCN(CC(=O)NC[C@H](O)[C@@H](O)[C@H](O)[C@H](O)CO)CC2)cc1CNC1(c2cnccc2-c2ccccc2OC2CC2)CC1` (stereo partly drawn) [Compound I-371, 2-[4-(5-{3-[({1-[4-(2-cyclopropoxyphenyl)pyridin-3-yl]cyclopropyl}amino)methyl]-4-methylphenyl}hexanoyl)piperazin-1-yl]-N-[(2S,3R,4R,5R)-2,3,4,5,6-pentahydroxyhexyl]acetamide], the EC50 was below 100 nM.

Consider `Cc1cnc(SCCCC(=O)NC[C@H](O)[C@@H](O)[C@H](O)[C@H](O)CO)nc1CNC1(c2cnccc2-c2ccccc2OC2CC2)CC1` [Compound I-655, 4-({4-[({1-[4-(2-cyclopropoxyphenyl)pyridin-3-yl]cyclopropyl}amino)methyl]-5-methylpyrimidin-2-yl}sulfanyl)-N-[(2S,3R,4R,5R)-2,3,4,5,6-pentahydroxyhexyl]butanamide], for which the EC50 is 12600 to 50100 nM.

In the case of `Cc1ccc(CCCCNC(=O)N(C)C[C@H](O)[C@@H](O)[C@H](O)[C@H](O)CO)nc1CNC1(c2cnccc2-c2ccccc2OC2CC2)CC1` [Compound I-706], the EC50 is 1260 to 10000 nM.

For `CC(CCCCN(CCOCCO)C(=O)NC[C@H](O)[C@@H](O)[C@H](O)[C@H](O)CO)c1ccc(Cl)c(CNC2(c3cnccc3-c3ccccc3OC3CC3)CC2)c1` (stereo partly drawn) [Compound I-270, 1-(5-{4-chloro-3-[({1-[4-(2-cyclopropoxyphenyl)pyridin-3-yl]cyclopropyl}amino)methyl]phenyl}hexyl)-1-[2-(2-hydroxyethoxy)ethyl]-3-[(2S,3R,4R,5R)-2,3,4,5,6-pentahydroxyhexyl]urea], the EC50 was below 100 nM.

On to `CS(=O)(=O)NCCCCN(CCCSc1ccc(Cl)c(CNC2(c3cnccc3-c3ccccc3OC3CC3)CC2)c1)C(=O)[C@@H](O)[C@@H](O)[C@H](O)[C@@H](O)CO` [Compound I-599, (2S,3S,4R,5S)-N-[3-({4-chloro-3-[({1-[4-(2-cyclopropoxyphenyl)pyridin-3-yl]cyclopropyl}amino)methyl]phenyl}sulfanyl)propyl]-2,3,4,5,6-pentahydroxy-N-(4-methanesulfonamidobutyl) hexanamide], for which the EC50 was below 100 nM.

As for `Cc1cc(COC2(c3cnccc3-c3ccccc3OC3CC3)CC2)c(Cl)cc1CCCCNC(=O)NCC(=O)NCC(=O)NCC(=O)O` [Compound I-111, 2-(2-{2-[({4-[5-chloro-4-({1-[4-(2-cyclopropoxyphenyl)pyridin-3-yl]cyclopropoxy}methyl)-2-methylphenyl]butyl}carbamoyl)amino]acetamido}acetamido)acetic acid], the EC50 is below 100 nM.

`O=C(NCCCC1(c2ccc(Cl)c(CNC3(c4cnccc4-c4ccccc4OC4CC4)CC3)c2)CC1)[C@@H](O)[C@@H](O)[C@H](O)[C@@H](O)CO` [Compound I-382, (2S,3S,4R,5S)-N-[3-(1-[4-chloro-3-[([1-[4-(2-cyclopropoxyphenyl)pyridin-3-yl]cyclopropyl]amino)methyl]phenyl]cyclopropyl)propyl]-2,3,4,5,6-pentahydroxyhexanamide]: the EC50 is below 100 nM.

Turning to `COC[C@@H](O)CN(C[C@H](O)[C@@H](O)[C@H](O)[C@H](O)CO)C(=O)CCCCc1cc(Cl)c(COC2(c3cnccc3-c3ccccc3OC3CC3)CC2)cc1Cl` [Compound I-125, 5-[2,5-dichloro-4-({1-[4-(2-cyclopropoxyphenyl)pyridin-3-yl]cyclopropoxy}methyl)phenyl]-N-[(2S)-2-hydroxy-3-methoxypropyl]-N-[(2S,3R,4R,5R)-2,3,4,5,6-pentahydroxyhexyl]pentanamide], the EC50 was below 100 nM.

Regarding `CCCN(C[C@H](O)[C@@H](O)[C@H](O)[C@H](O)CO)C(=O)CCCCc1cc(Cl)c(COC2(c3cnccc3-c3ccccc3OC3CC3)CC2)cc1Cl` [Compound I-129, 5-[2,5-dichloro-4-({1-[4-(2-cyclopropoxyphenyl)pyridin-3-yl]cyclopropoxy}methyl)phenyl]-N-[(2S,3R,4R,5R)-2,3,4,5,6-pentahydroxyhexyl]-N-propylpentanamide], the EC50 was below 100 nM.

On to `CCOC(=O)NCCN(CCCCSc1ccc(Cl)c(CNC2(c3cnccc3-c3ccccc3OC3CC3)CC2)c1)C(=O)[C@@H](O)[C@@H](O)[C@H](O)[C@@H](O)CO` [Compound I-572, ethyl N-{2-[(2S,3S,4R,5S)-N-[4-({4-chloro-3-[({1-[4-(2-cyclopropoxyphenyl)pyridin-3-yl]cyclopropyl}amino)methyl]phenyl}sulfanyl)butyl]-2,3,4,5,6-pentahydroxyhexanamido]ethyl}carbamate], for which the EC50 was below 100 nM.

Turning to `C[C@H](CCCCC(=O)N(C)C[C@H](O)[C@@H](O)[C@H](O)[C@H](O)CO)c1ccc(Cl)c(CNC2(c3cnccc3-c3ccccc3OC3CC3)CC2)c1` (single isomer, unassigned) [Compound I-329], the EC50 was below 100 nM.

On to `Fc1ccc(OC2CC2)c(-c2ccncc2C2(NCc3cc(Cl)ccc3Cl)CC2)c1` [Compound I-3, 1-[4-(2-cyclopropoxy-5-fluorophenyl)pyridin-3-yl]-N-[(2,5-dichlorophenyl)methyl]cyclopropan-1-amine], for which the EC50 was below 100 nM.

`O=C(CCCSc1ccc(Cl)c(COC2(c3cnccc3-c3ccccc3OC3CC3)CC2)c1)N(CCOCCO)C[C@H](O)[C@@H](O)[C@H](O)[C@H](O)CO` [Compound I-683, 4-{[4-chloro-3-({1-[4-(2-cyclopropoxyphenyl)pyridin-3-yl]cyclopropoxy}methyl)phenyl]sulfanyl}-N-[2-(2-hydroxyethoxy)ethyl]-N-[(2S,3R,4R,5R)-2,3,4,5,6-pentahydroxyhexyl]butanamide]: the EC50 is 126 to 1000 nM.

Consider `CN(CCCCNC(=O)NC[C@H](O)[C@@H](O)[C@H](O)[C@H](O)CO)S(=O)(=O)c1cc(COC2(c3cnccc3-c3ccccc3OC3CC3)CC2)c(Cl)cc1F` [Compound I-466, 1-{4-[N-methyl4-chloro-5-({1-[4-(2-cyclopropoxyphenyl)pyridin-3-yl]cyclopropoxy}methyl)-2-fluorobenzenesulfonamido]butyl}-3-[(2S,3R,4R,5R)-2,3,4,5,6-pentahydroxyhexyl]urea], for which the EC50 was below 100 nM.

Consider `CC(CCCC(=O)N(CCCS(C)(=O)=O)C[C@H](O)[C@@H](O)[C@H](O)[C@H](O)CO)c1ccc(Cl)c(CNC2(c3cnccc3-c3ccccc3OC3CC3)CC2)c1` (stereo partly drawn) [Compound I-347, 5-{4-chloro-3-[({1-[4-(2-cyclopropoxyphenyl)pyridin-3-yl]cyclopropyl}amino)methyl]phenyl}-N-(3-methanesulfonylpropyl)-N-[(2S,3R,4R,5R)-2,3,4,5,6-pentahydroxyhexyl]hexanamide], for which the EC50 was below 100 nM.

For `CS(=O)(=O)c1ccc(Cl)cc1CNC1(c2cnccc2-c2ccccc2OC2CC2)CC1` [Compound I-43, N-[(5-chloro-2-methanesulfonylphenyl)methyl]-1-[4-(2-cyclopropoxyphenyl)pyridin-3-yl]cyclopropan-1-amine], the EC50 is 126 to 1000 nM.
